Measurements from article PMC5712521, “Dendrogenin A drives LXR to trigger lethal autophagy in cancers” (Nature Communications, 2017).

Test system: primary AML cells
Experiment: Immunoblot densitometry in primary AML cells
Assay type: cell-based, human
Conditions: 5 µM DDA, 24 h
Method: Immunoblotting was carried out as described previously. Proteins were separated on SDS-PAGE gels, electro-transferred onto polyvinylidene difluoride membranes and incubated overnight at 4 °C with the following antibodies: anti-Atg3, anti-Atg5 (D1G9), anti-Atg7 (D12B11), anti-Beclin (D40C5), anti-caspase-3 (Cell Signaling), anti-Bcl-2 (Millipore), anti-Bax (Millipore), anti-LC3 (Sigma-Aldrich), anti-LXRα (SantaCruz), anti-LXRβ (SantaCruz), anti-Nur77 (Active motif), anti-NOR1 (R&D systems), anti-PARP (Cell Signaling), anti-Vps34 (Cell Signaling), or anti-Actin (Millipore). For visualization, an ECL plus kit (Amersham Biosciences) was used, and chemiluminescence was measured by autoradiography (Supplementary Fig. 9). Specific bands were quantified with ImageQuant software.
AML patient and normal bone marrow samples were obtained from patients in the Hematology Department of Toulouse (France), after obtaining consent in accordance with the Declaration of Helsinki[67], and according to institutional guidelines. Samples were stored at the INSERM-1037 HIMIP collection (no. DC-2008-307-CPTP1 HIMIP). For some experiments, fresh leukemic blasts recovered at diagnosis were immediately treated with DDA. In other cases, frozen cells were thawed in IMDM medium with 20% FBS. Patient characteristics are shown in supplementary data 1. Normal bone marrow cells were subjected to Ficoll-Paque density gradient separation to isolate mononuclear cells, followed by CD34+ cell separation using high-gradient magnetic-activated cell sorting, according to the manufacturer’s manual. The in vivo assays were performed with cryopreserved cells. […]
All data or images are
representative of 3 independent experiments.

CC(C)CCC[C@@H](C)[C@H]1CC[C@H]2[C@@H]3C[C@@H](NCCc4cnc[nH]4)[C@@]4(O)C[C@@H](O)CC[C@]4(C)[C@H]3CC[C@]12C [DDA, Dendrogenin A]
LC3-II protein, densitometry relative to vehicle (AML#4): 3.4 | LXRβ protein, densitometry relative to vehicle (AML#4): 0.9 | NOR1 protein, densitometry relative to vehicle (AML#4): 2 | Nur77 protein, densitometry relative to vehicle (AML#4): 1.4 | LC3-II protein, densitometry relative to vehicle (AML#5): 3 | LXRβ protein, densitometry relative to vehicle (AML#5): 0.7 | NOR1 protein, densitometry relative to vehicle (AML#5): 2.2 | Nur77 protein, densitometry relative to vehicle (AML#5): 1.7
